Test results from US9110051B2, “Pharmacologic method of lowering cholesterol production” (The University of Chicago, priority 2004, dated 2015).

Tests used:
Type in all cases: cell-based
human red blood cells = experiment: Screen using red blood cell lysis by amphotericin B; conditions: for effect on amphotericin B lysis of red cells (activity of membrane cholesterol): cholesterol lowered with cyclodextrin, turbidity or by eye, FIGS. 1 and 2; for red blood cell lysis caused by amphotericin B (visual screen): cholesterol-modified cells, octanol 0.2 μmol/well or lysophosphatidylcholine 1 μg/well, amphotericin B 20 μg/well, 1 h, room temperature
Method: Human red blood cells were either freshly drawn or taken from an outdated blood bank source and then washed and suspended in physiological buffer. The cholesterol content of washed human red blood cells was varied with methyl-β-cyclodextrin/methyl-β-cyclodextrin-cholesterol complexes. The cells were distributed into a 96-well plate and incubated for a few minutes with saline (O), 0.2 μmol/well octanol (V) or 1 μg/well lysophosphatidylcholine (□). Amphotericin B (20 μg/well) was added and the plate incubated for 1 hour at room temperature. […] In FIG. 1, turbidity (signifying intact cells) was determined in a plate-reading photometer as optical density (OD) at 500 nm; loss of OD signifies lysis. In FIG. 1, results are plotted versus total human red blood cell cholesterol, assessed with Amplex™ Red, Molecular Probes, Eugene, Oreg. The cholesterol content of unmodified red blood cells was 0.55 μg/μl cells, close to the threshold of the control curve.
Cells with modified cholesterol were placed in the conical wells of a 96-well plate, briefly pre-incubated with the two test compounds, and then treated with amphotericin B (20 μg/well) for one hour at room temperature. The plate was photographed after the cells settled. Row A: saline control. Cells depleted of cholesterol (wells 1-6) resisted lysis (seen as a loss of the central button). Row B: n-octanol (0.2 μmol/well). […] Row C: Lysophosphatidylcholine (1 μg/well).
Human red cells (freshly drawn or from an outdated blood bank source) were washed and suspended in physiological buffer. […] The cholesterol modified cells were placed in the wells of a microtiter plate and incubated for a few minutes at room temperature with octanol and lysophosphatidylcholine, which can be replaced with a battery of drugs (individually or in mixtures). Amphotericin B was then added and the plate incubated at room temperature for an hour. Cell lysis was scored by reading light scattering in a plate-reading photometer (FIG. 1) or, more simply, by letting the unlysed cells settle for an hour in conical wells and then assessing hemolysis by eye (FIG. 2).
Polyene antibiotics such as amphotericin B are known to promote the disruption of cholesterol containing membranes. However, this action depends critically on the cholesterol level in the membrane (see the control curves, O - - - O, in FIGS. 1 and 2). The critical cholesterol content for lysis is close to the physiological level in human fibroblast plasma membranes, for the same reason that ER cholesterol responds dramatically near the physiological content of the plasma membrane. […]

red cell membranes = experiment: Oxidation of red cell membrane cholesterol by cholesterol oxidase; conditions: 0-12 μmolar analog pretreatment; cholesterol oxidase 1 h, FIG. 5
Method: The red cell membranes were pretreated with ceramide or diglycerides and then treated with cholesterol oxidase for a hour. An increase in oxidation following cholesterol oxidase treatment signifies an increase in active cellular cholesterol.
Red cell membrane lysis is measured using cholesterol oxidase as set forth in the examples above. Prior to lysis, red cell membranes are treated with either differing amounts of a ceramide analog (0-12 μmolar) or differing amounts of a diglyceride analog (0-12 μmolar). The increased level of plasma membrane cholesterol activity is detected by susceptibility to cholesterol oxidase and measured as a % of oxidation.

red blood cells = experiment: Lysis of red blood cells by saponin; conditions: saponin 0-8 μg/well, 30 minutes, compared to solvent control, FIG. 6
Method: Red blood cells were pre-treated with either octanol, diglyceride, ceramide, or solvent before incubation with varying concentrations of saponin. The decrease in optical absorbance at 500 nm indicates increasing lysis.
Red cell membranes are treated with octanol, diglyceride, ceramide, or solvent before incubation with different concentrations of saponin (0-8 μg/well) for 30 minutes. Optical absorbance at OD500 is measured. Decreased optical absorbance indicates increasing lysis by saponin.

[1] = tested on: human fibroblast cell line; experiment: Fibroblast plasma membrane cholesterol susceptibility to cholesterol oxidase; conditions: adding 0.1-1.0 mM octanol
Method: A human fibroblast cell line is grown in bulk culture and seeded into microtiter wells the day before experimentation. The fibroblast cells from the fibroblast cell line are rinsed and treated with octanol plus cholesterol oxidase as in Example 2. The increased level of plasma membrane cholesterol activity is detected in two ways. First, plasma membrane cholesterol activity is detected by susceptibility to cholesterol oxidase. […] Cell lysis caused by cholesterol oxidation can also be determined by measuring increased cell permeability using a plate fluorescence reader and the impermeable indicator of potassium ions, PBFI, or another indicator system.

human fibroblasts = experiment: Effect of octanol on fibroblast cholesterol; conditions: 24 h in growth medium with octanol, FIG. 4
Method: FIG. 4 depicts the effect of octanol on fibroblast cholesterol. Replicate flasks of fibroblasts were incubated for 24 h in growth medium with octanol. The cells were then assayed for cholesterol and protein.
The cultured cells described in Example 3 will be plated in microtiter wells and incubated with test compounds at 37° C. for two days to allow a full metabolic response. The drug will then be washed away, amphotericin B added to the wells and cell lysis followed from the leakage of potassium ions or another indicator, as above. Resistance to amphotericin B lysis will indicate that the objective has been achieved: the reduction of plasma membrane cholesterol in response to the test compound. Other polyene antibiotics (e.g., nystatin and filipin) will be tested in place of amphotericin B in order to discern their effects. In contrast to the screens described in the previous examples, which are used to identify compounds that raise the activity of membrane cholesterol, the present assay will measure the long-term effect of modulating cholesterol levels. Agents that increase plasma membrane cholesterol activity, when used as drugs, will signal cells to reduce their cholesterol accretion homeostatically. […] This can be detected by their increased resistance to amphotericin B, which normally lyses these cells.

Row | Compound | effect on amphotericin B lysis of red cells (activity of membrane cholesterol) (human red blood cells) | red blood cell lysis caused by amphotericin B (visual screen) (human red blood cells) | susceptibility of red cell cholesterol to oxidation by cholesterol oxidase (% of oxidation) (red cell membranes) | lysis of red blood cells by saponin (OD500) (red blood cells) | oxidation of fibroblast cholesterol by cholesterol oxidase [1] | fibroblast cell cholesterol after prolonged culture (human fibroblasts)
1 | lysophosphatidylcholine | has the opposite effect | Even enriched cells resisted amphotericin B lysis |  |  |  | 
2 | ceramide |  |  | increase the susceptibility of red cell cholesterol to oxidation | increase lysis of red blood cells at lower concentrations of saponin |  | 
3 | CCCCCCCCO [octanol, n-octanol] | favors amphotericin B lysis | Even cholesterol depleted cells were lysed by amphotericin B |  | increase lysis of red blood cells at lower concentrations of saponin | readily oxidized | resulted in cholesterol reduction
